Laboratory results published in US20160002250A1, “POLYMORPHS AND SALTS OF A COMPOUND” (FORUM Pharmaceuticals Inc., priority 2013, published 2016).
≈ marks a conversion by molar mass, not a printed value. Where two headings read alike, the source gives them in different places.

How the values were obtained:
[1] = Thermodynamic aqueous solubility; conditions: for solubility at 24 h: 25 °C, thermodynamic from solid
Description: The suspension was equilibrated at 25° C. for 24 hours then the pH was measured and adjusted with either HCl or NaOH if it deviated by more than 0.3 units from the target pH. The suspension was then filtered through a glass fiber C filter. […] Different volumes of the standard, diluted and undiluted sample solutions were injected.
Analysis was performed on an Agilent HP1100 series system equipped with a diode array detector and using ChemStation software. The following buffers were prepared to carry out the solubility analyses:
pH 1.2—made up by adding 85.0 mL of 0.2M HCl(aq) to 50 mL of 0.2M KCl(aq) and making up to 200 mL. pH 4.5—made up by adding 2.99 g of NaC2H3O2.3H2O to 14.0 mL of 2N AcOH(aq) and making up to 1000 mL. pH 7.4—made up adding 39.1 mL of 0.2M NaOH(aq) to 50.0 mL of a 0.2M KH2PO4 and making up to 200 mL.

[2] = pKa determination (Sirius GlpKa); assay type: physicochemical; conditions: 25° C.
Description: Data were collected on a Sirius G1pKa instrument with a D-PAS attachment. Measurements were made at 25° C. in aqueous solution by UV and in methanol water mixtures by potentiometry. The titration media was ionic-strength adjusted (ISA) with 0.15 M KCl (aq). The values found in the methanol water mixtures were corrected to 0% co-solvent via a Yasuda-Shedlovsky extrapolation. The data were refined using Refinement Pro software v2.2. Prediction of pKa values was made using ACD/Labs software.

[3] = Log P determination (potentiometric titration); assay type: physicochemical; conditions: octanol/ionic-strength adjusted (ISA) water
Description: Data were collected by potentiometric titration on a Sirius G1pKa instrument using three ratios of octanol:ionic-strength adjusted (ISA) water to generate Log P, Log Pion, and Log D values. The data were refined using Refinement Pro software. Prediction of Log P values was made using ACD/Labs software.

Molecule `CC1(C)OC(c2ccncc2)=C(c2ccc(OCc3cn4ncccc4n3)cc2)C1=O` [Free Base, 4-(4-(imidazo[1,2-b]pyridazin-2-ylmethoxy)phenyl)-2,2-dimethyl-5-(pyridin-4-yl)furan-3(2H)-one] has a solubility at 24 h ([1]; aqueous buffer, pH 1.2, simulated gastric fluid) of 12200 µg/mL (≈ 29600 µM), a solubility at 24 h ([1]; aqueous buffer, pH 4.5, aqueous buffer) of 90 µg/mL (≈ 218 µM) and a solubility at 24 h ([1]; aqueous buffer, pH 7.4, aqueous buffer) of 50 µg/mL (≈ 121 µM). The “pH of unfiltered saturated solution” value ([1]; pH point 1.2) was 1.24, the “pH of unfiltered saturated solution” value ([1]; pH point 4.5) was 4.71 and the “pH of unfiltered saturated solution” value ([1]; pH point 7.4) was 7.44. The “pH of unfiltered saturated solution” value ([1]; pH point unadjusted aqueous) was 6.19, the solubility at 24 h ([1]; water (unadjusted aqueous), water) was 60 µg/mL (≈ 145 µM) and the pKa ([2]; read-out: pKa (first of two basic centers)) was 3.7. The pKa ([2]; read-out: pKa (second of two basic centers)) was 2.9 and the logP [3] was 3.
